Assay results reported in PubChem BioAssay (NCI).
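Interpolation was linear, between the two tested concentrations surrounding the appropriate level; five concentrations were tested over 48 hours in 96-well plates. GI50 marks 50% less growth. TGI is the concentration that stops growth completely.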

Key:
Assay in all cases: growth of human tumour cells (NCI), 48 h
[1] = system: 786-0 renal
[2] = system: A498 renal
[3] = system: A549 NSCLC
[4] = system: ACHN renal
[5] = system: BT-549 breast
[6] = system: CAKI-1 renal
[7] = system: CCRF-CEM leukemia
[8] = system: COLO 205 colon
[9] = system: DU-145 prostate
[10] = system: EKVX NSCLC
[11] = system: HCC-2998 colon
[12] = system: HCT-116 colon
[13] = system: HCT-15 colon
[14] = system: HL-60(TB) leukemia
[15] = system: HOP-62 NSCLC
[16] = system: HOP-92 NSCLC
[17] = system: HS 578T breast
[18] = system: HT29 colon
[19] = system: IGROV1 ovarian
[20] = system: K-562 leukemia
[21] = system: KM12 colon
[22] = system: LOX IMVI melanoma
[23] = system: M14 melanoma
[24] = system: MALME-3M melanoma
[25] = system: MCF7 breast
[26] = system: MDA-MB-231 breast
[27] = system: MDA-MB-435
[28] = system: MOLT-4 leukemia
[29] = system: NCI-H226 lung

O=[N+]([O-])c1ccc(-c2nc(-c3ccccc3)c(-c3ccccc3)n2-c2ccccc2)cc1
GI50 [1]: 4.82 µM | TGI [1]: 22.3 µM | GI50 [2]: 2.81 µM | TGI [2]: 9.12 µM | GI50 [3]: 3.01 µM | TGI [3]: 12.6 µM | GI50 [4]: 2.62 µM | TGI [4]: 27.4 µM | GI50 [5]: 2.16 µM | TGI [5]: 6.53 µM | GI50 [6]: 3.04 µM | TGI [6]: > 28.4 µM | GI50 [7]: 2.83 µM | TGI [7]: > 23.8 µM | GI50 [8]: 1.78 µM | TGI [8]: 3.49 µM | GI50 [9]: 2.72 µM | TGI [9]: 12.2 µM | GI50 [10]: 2.93 µM | TGI [10]: > 26.6 µM | GI50 [11]: 2.07 µM | TGI [11]: 4.1 µM | GI50 [12]: 3.47 µM | TGI [12]: 14 µM | GI50 [13]: 2.82 µM | TGI [13]: 8.76 µM | GI50 [14]: 2.41 µM | TGI [14]: 5.83 µM | GI50 [15]: 5.36 µM | TGI [15]: > 86.2 µM | GI50 [16]: 2.42 µM | TGI [16]: 7.44 µM | GI50 [17]: 2.74 µM | TGI [17]: 14.4 µM | GI50 [18]: 1.75 µM | TGI [18]: 3.37 µM | GI50 [19]: 2.42 µM | TGI [19]: 7.28 µM | GI50 [20]: 3.24 µM | TGI [20]: 95.9 µM | GI50 [21]: 2.3 µM | TGI [21]: 5.6 µM | GI50 [22]: 2.4 µM | TGI [22]: 6.86 µM | GI50 [23]: 3.57 µM | TGI [23]: 16 µM | GI50 [24]: 2.78 µM | TGI [24]: 8.58 µM | GI50 [25]: 2.04 µM | TGI [25]: 6.28 µM | GI50 [26]: 2.36 µM | TGI [26]: 7.04 µM | GI50 [27]: 2.5 µM | TGI [27]: 7.63 µM | GI50 [28]: 2.28 µM | TGI [28]: 11.5 µM | GI50 [29]: 4.57 µM | TGI [29]: > 24.5 µM
